Experimental data published in patent publication US7498336B2, “Deazaflavin compounds and methods of use thereof” (The United States of America as represented by the …, priority 2003, dated 2009).

What was measured:
[1] = target: T1, GST-UbcH5B (Homo sapiens, UniProt P62837); experiment: E1+E2 assay with immobilized E2 (thiol-ester linkage with E2); type: biochemical; conditions: FIG. 2E
T1 construct: made in house
Experimental: c. E1+E2 Assay with Immobilized E2
20 pmoles of bacterially-expressed GST-UbcH5B is bound to GS for 30 minutes at room temperature after washing in 50 mM Tris pH 7.5. Twenty (20) μl of 1× reaction buffer is added. After incubation with the test compound for 1 hour at 23° C. the beads were washed with 50 mM Tris pH 7.5. This was followed by addition of Rabbit E1/32P Ub cocktail (1 μl/1 μl) followed by incubation at 1 hour shaking at 23° C. This is followed by resolution by SDS-PAGE under non-reducing conditions and exposure as above.

[2] = system: Normal human fibroblast MRC-5; experiment: Cell based assay for accumulation of MDM2 and p53 (immunoblot); conditions: MRC-5 cells, 50 μM, 8 hours
Experimental: Methods: Normal human fibroblast MRC-5 were chosen to determine whether the compounds from the high throughput screening can inhibit the E3 activity of Mdm2, i.e. stabilizing MDM2 and p53 in vivo. After being seeded in 12-well tissue culture cluster overnight, the cells were treated with 50 μM of the compounds for 8 hours. They were harvested with trypsin-EDTA, washed with PBS, and lysed with RIPA buffer. Following removal of insoluble pellet by centrifugation for 20 minutes at 10000 rpm, the lysate was separated on 4-20% gradient SDS-polyacrylamide gel and transferred onto nitrocellulose membrane. The membrane was then blotted with anti-p53 antibody (DO-1), anti-MDM2 antibodies (Ab-1 and Ab-2), anti-p27 (Santa Cruz), anti-Nedd4, and anti-p21Waf1 antibody. After extensive washing with PBS containing 0.5% Triton X-100, it was incubated with HRP-labeled donkey anti-mouse antibody and visualized using enhanced chemiluminescence.

[3] = target: T2, p53 pre-bound to GST-MDM2 (Homo sapiens, UniProt Q00987); experiment: In vitro p53 ubiquitination assay; type: biochemical; conditions: cellular p53 pre-bound to GST-MDM2, FIG. 2G
T2 construct: made in house; host or cells: GST-MDM2: bacteria; p53: SaOS-p53 inducible cells
Experimental: d. In Vitro R53 Ubiguitination Assay
p53 protein from SaOS-p53 inducible cell lysate was purified from cells using GST-MDM2 (5 pmol) pre-bound to GS beads. Samples were then incubated with test compounds as above. Subsequently 2 μl rabbit E1, 1 μl UbcH5b, and 10 μg of ubiquitin were added. After reaction for 15 min at 23° C., samples were subject to SDS-PAGE under reducing conditions, transferred to nitrocellulose membranes and immunoblotted with anti-p53 (DO-1) followed by ECL using standard techniques.

T2 sequence (Q00987 whole entry): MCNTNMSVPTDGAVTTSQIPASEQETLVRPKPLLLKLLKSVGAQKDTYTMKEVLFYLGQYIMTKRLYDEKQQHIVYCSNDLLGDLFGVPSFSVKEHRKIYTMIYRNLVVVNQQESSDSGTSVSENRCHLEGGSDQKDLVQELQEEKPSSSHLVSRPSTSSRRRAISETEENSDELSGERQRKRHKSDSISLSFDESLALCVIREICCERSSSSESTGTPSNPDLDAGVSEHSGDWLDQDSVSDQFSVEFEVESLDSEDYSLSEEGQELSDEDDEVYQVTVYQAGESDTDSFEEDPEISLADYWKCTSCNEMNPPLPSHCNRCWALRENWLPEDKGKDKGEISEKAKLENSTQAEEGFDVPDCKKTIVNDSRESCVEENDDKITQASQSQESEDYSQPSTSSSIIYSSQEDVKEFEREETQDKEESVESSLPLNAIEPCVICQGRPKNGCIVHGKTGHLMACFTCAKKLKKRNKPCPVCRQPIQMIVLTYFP
T2 sequence (P04637 whole entry partner): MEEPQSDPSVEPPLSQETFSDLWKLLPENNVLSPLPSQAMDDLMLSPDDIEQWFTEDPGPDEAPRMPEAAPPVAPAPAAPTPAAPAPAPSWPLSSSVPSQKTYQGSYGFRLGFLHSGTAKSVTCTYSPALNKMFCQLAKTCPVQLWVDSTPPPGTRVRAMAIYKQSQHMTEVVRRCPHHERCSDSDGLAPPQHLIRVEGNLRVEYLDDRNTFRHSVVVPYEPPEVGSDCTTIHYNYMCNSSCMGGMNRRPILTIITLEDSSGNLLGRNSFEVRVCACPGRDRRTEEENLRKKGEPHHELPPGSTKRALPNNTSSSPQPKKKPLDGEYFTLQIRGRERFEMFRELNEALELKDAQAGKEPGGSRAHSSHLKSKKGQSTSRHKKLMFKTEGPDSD
T1 sequence (P62837 whole entry): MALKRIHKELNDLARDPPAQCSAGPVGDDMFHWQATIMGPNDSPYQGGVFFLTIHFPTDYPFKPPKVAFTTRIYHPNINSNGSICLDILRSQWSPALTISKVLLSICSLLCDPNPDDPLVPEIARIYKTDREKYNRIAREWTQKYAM

O=c1nc2n(-c3cccc(Cl)c3)c3ccc([N+](=O)[O-])cc3cc-2c(=O)[nH]1 [Compound 98C07, 10-(-3-chloro-phenyl)-7-nitro-10H-pyrimido[4,5-b]quinoline-2,4-dione]
inhibition of thiol-ester linkage of ubiquitin with E2 [1]: inhibits neither thiol-ester linkages of ubiquitin with E1 nor E2
MDM2 level [2]: specifically increase MDM2 and p53
p53 level [2]: specifically increase MDM2 and p53
inhibition of p53 ubiquitination by MDM2 [3]: significant dose-dependent inhibition of p53 ubiquitination
